# Laboratory results from patent US20100197625A1, “SYNTHETIC LIPOPHILIC INOSITOL GLYCANS FOR TREATMENT OF CANCER AND GLUCOSE-METABOLISM DISORDERS” (priority 2006, published 2010).
# Columns and labels:
# [1] = test system: C57B/6 mice on high-fat diets; experiment: Intravenous administration of IG1, mice on high-fat diets; assay type: in vivo
# Experimental: Male C57BL/6 mice were housed individually and given free access to a standard diet (65% carbohydrate, 4% fat, and 24% protein) or a high-fat diet (Quick Fat; 60.2% carbohydrate, 15.3% fat, and 24.5% protein; Clea Japan, Tokyo, Japan), starting at 5 weeks of age, for 5 weeks. Db/db mice also were housed individually and given free access to a standard diet. C57BL/6 mice at 5 weeks of age, were received a single dose of 75 μg/g body weight streptozotoxin (STZ). 7 days after injections, the mice, whose fasting plasma glucose concentrations were over 400 mg/dl, were used as STZ-diabetic mice. […]
# Frozen livers were homogenized, and triglycerides were extracted with CHCl3:CH3OH (2:1, vol:vol), dried and resuspended in 2-propanol (17). Triglyceride contents were measured using Lipidos liquid (TOYOBO, Osaka, Japan). […] Glycogen content was determined by the phenol-sulfuric acid spectrophotometric method at 490 nm (18) and expressed as micrograms of glycogen per milligram of liver.
# Blood glucose was assayed with Glucose Ace (Sanwa Kagaku Kenkyusho, Nagoya, Japan). Serum insulin and leptin were determined with ELISA kits (Morinaga Institute of Biological Science, Yokohama, Japan). Serum adiponectin and tumor necrosis factor-α (TNF-α) concentrations were measured with an ELISA kit (Ohtsuka Pharmaceutical, Tokyo, Japan) and a TNF-α assay kit (Amersham Biosciences, Uppsala, Sweden), respectively. […]
# 3T3-L1 adipocytes = experiment: Lipogenesis in 3T3-L1 adipocytes; assay type: cell-based, mouse; conditions: 10-1000 μM
# Experimental: 3T3-L1 fibroblasts were maintained in Dulbecco's modified Eagle's medium (DMEM) with 25 mM glucose plus 10% fetal bovine serum (FBS). Following 2 days at confluence, differentiation was initiated by the addition of DMEM containing 10% FBS, 167 nM insulin, […] dexamethasone, and 0.5 mM isobutylmethylxanthine. Three days later, the medium was replaced with DMEM plus 10% FBS and 167 nM insulin. After 2 more days, the medium was switched to DMEM plus 10% fetal bovine serum. Adipocytes were used 6-14 days after completion of the differentiation protocol, when >90% of the cells expressed the adipocyte phenotype. Prior to experiments, cells were washed two times with DMEM medium containing 5 mM glucose, 0.2% bovine serum albumin, 25 mM Hepes (pH 7.4), 100 units/ml penicillin, 100 units/ml streptomycin and 0.29 mg/ml glutamine, and were incubated in the same medium for 2 h. Glycogen and lipid synthesis were measured in 24-well dishes. […] The lipids were then extracted overnight with 5 ml of Betafluor (National Diagnostics), and glucose incorporation into lipid was measured by scintillation counting. 400 μl of the cell suspension was added to 600 μl of 50% KOH, and glycogen was precipitated and radioactivity was counted by a liquid scintillation counter
# [2] = test system: human prostate cancer cells (PC3); experiment: Cell proliferation / cell death assay, PC3; assay type: cell-based; conditions: PC3, 10-100 μM
# Experimental: (§1) Human pancreatic cancer cell lines (Panc-1, MiaPaca2, BXPC3, Aspc 1), human hepatoma cell line (HuH7), human gastric cancer cell lines (AGS, MKN45), human colon cancer cell line (CoCM-1), human mammary cancer cell line (MCF-7), human neuroblastoma (SH-SY5Y), human prostate cancer cells (PC3), and murine Ehrlich ascites cancer cells and mouse 3T3-L1 fibroblasts were obtained from American Type Culture Collection (Rockville, Md., USA). The cancer cells were cultured in RPMI 1640 containing 10% fetal calf serum. Cultures were maintained at 37° C. in a humidified atmosphere of 5% CO2.
# Cell proliferation assays were performed with the CellTiter 96 AQueous One Solution Cell Proliferation Assay kit according to the manufacturer's instructions (Promega, Madison, Wis., USA). Briefly, 5×10^3 cells/well in medium were placed onto 96-well plates. IGs were added to cellular cultures at final concentrations of 0, 1, 10, and 100 μM. […] of CellTiter 96 AQueous One Solution Reagent, which contains a tetrazolium compound, 3-(4,5-dimethylthiazol-2-yl)-5-(3-carboxymethoxyphenyl)-2-(4-sulfophenyl)-2H-tetrazolium, an inner salt; MTS was added to the culture medium. After incubating the plate for 1 h in a CO2 incubator, absorbance at 490 nm was recorded with a 96-well plate reader.
# Panc-1 cells = experiment: Lactate production in Panc-1 cells; assay type: cell-based, human; conditions: 1 hour incubation in serum free media
# Experimental: as §1
# BXPC3 = experiment: Cell proliferation / cell death assay, BXPC3; assay type: cell-based, human; conditions: BXPC3, 10-100 μM
# Experimental: as §1
# Cell proliferation assays were performed with the CellTiter 96 AQueous One Solution Cell Proliferation Assay kit according to the manufacturer's instructions (Promega, Madison, Wis., USA). Briefly, 5×10^3 cells/well in medium were placed onto 96-well plates. IGs were added to cellular cultures at final concentrations of 0, 1, 10, and 100 μM. Cultures were incubated for 3 days or 7 days and then added to 20 μL/well of CellTiter 96 AQueous One Solution Reagent, which contains a tetrazolium compound, 3-(4,5-dimethylthiazol-2-yl)-5-(3-carboxymethoxyphenyl)-2-(4-sulfophenyl)-2H-tetrazolium, an inner salt; MTS was added to the culture medium. After incubating the plate for 1 h in a CO2 incubator, absorbance at 490 nm was recorded with a 96-well plate reader.
smiles,measurement,setting,value
"CCCCCCCCCCCCCCCC(=O)O[C@@H]1C(O)C(O)[C@H](O)C(O[C@H]2OC(CO)[C@@H](O)[C@H](O)C2N)C1O (stereo in doubt) [IG1, 2-Amino-2-deoxy-α-D-glucopyranosyl-(1→6)-2-palmitoyl-D-myo-inositol]",plasma glucose concentrations,"[1]; intravenous, 0.3-1 mg per mice, 90-300 min after administration",significantly reduced plasma glucose concentrations
same,hepatic and muscular glycogen contents,"[1]; mice on high-fat diets, data not shown",significantly increases hepatic and muscular glycogen contents
same,lipogenesis,3T3-L1 adipocytes,stimulates
same,rapid cancer cell death,[2],rapid cancer cell death was demonstrated
same,lactate production (aerobic glycolysis),Panc-1 cells,inhibits lactate production
same,rapid cancer cell death,BXPC3,rapid cancer cell death was demonstrated
